Results as given in US9925166B2, “Methods of treating an overweight or obese subject” (Zafgen, Inc., priority 2008, dated 2018).

Assays:
MetAP-2 = molecular target: T1, MetAP-2 (Mus musculus, UniProt O08663); assay: ELISA assay of MetAP-2 binding (free MetAP-2) in adipose tissue lysates of dosed diet-induced obese mice; conditions: fumagillin orally 3 mg/kg or 10 mg/kg; diet-induced obese mice; FIG. 1
T1 construct: from tissue; host or cells: adipose tissue of diet-induced obese mice
Description: Diet-induced obese mice were orally (p.o.) administered fumagillin (3 mg/kg or 10 mg/kg; Medivet), subcutaneously administered (s.c.) TNP-470 (1 mg/kg, 3 mg/kg, 10 mg/kg, or 30 mg/kg; synthesized by standard semi-synthetic processes as described in European Patent EP 0 357 061), or administered a solution of 10% dimethyl sulfoxide (DMSO; control; Sigma-Aldrich). Mice were sacrificed and adipose tissue samples were obtained.
An ELISA assay of MetAP-2 binding was conducted with tissue lysates prepared from the adipose tissue samples. The MetAP-2 ELISA is a quantitative assay to determine the amount of free MetAP-2 in tissue or cell lysates, i.e., MetAP-2 not covalently bound to fumagillin or TNP-470. The assay takes advantage of the fact that biotinylated fumagillin can bind to the catalytic site of the MetAP-2 enzyme only if this site has not already been derivatized by fumagillin or TNP-470. The biotinylated MetAP-2-inhibitor complex was captured on a streptavidin-coated plate and detected with a rabbit anti-MetAP-2 antibody (Zymed Laboratories Inc.). Horseradish peroxidase-conjugated anti-rabbit immunoglobulin G (IgG) was added to detect the MetAP-2 antibody immobilized to the streptavidin-coated plate with its covalently bound biotinylated fumagillin. Tetramethylbenzidine (TMB) substrate was added and the reaction was stopped by addition of sulfuric acid. Analysis was performed by determining absorption at 450 nm. Human recombinant MetAP-2 (R&D Systems), pre-bound to biotinylated fumagillin, was used to generate a standard curve.

diet-induced obese mice [1] = assay: Weight loss study in diet-induced obese mice, oral gavage 28 days (Example 2); assay type: in vivo, C57BL/6NTac mice; conditions: for weight loss as a percentage of pre-study weight: 28 days, end of study
Description: The mice in this study were not genetically obese, but prior to and during the study, obesity was induced by a high-fat diet. Twelve week-old C57BL/6NTac mice, maintained on a 60% fat diet prior to and during the study, were separated into six groups, eight animals per group.
Fumagillin was administered to four of the diet-induced obese mice groups by oral gavage as a solution in 10% DMSO, at doses of 1 mg/kg/day, 3 mg/kg/day, 10 mg/kg/day and 30 mg/kg/day respectively, for 28 days. A fifth group received 10% DMSO vehicle-only (control) by oral gavage, and the sixth group received neither vehicle nor fumagillin (naïve). Body weight was measured on day 0 (pre-study) and subsequently on day 3, day 8, day 15, day 22, and day 29 of the study. Daily food consumption was also recorded.

diet-induced obese mice [2] = assay: Very low dose oral and subcutaneous weight loss study in diet-induced obese mice (Examples 3 and 4); assay type: in vivo, C57BL/6NTac mice
Excerpt: (§1) Mice were divided into two groups, a diet-induced obese group and a lean group. For the diet-induced obese group, fifteen week-old C57BL/6NTac mice, maintained prior to and during the study on a diet containing 60% fat on a kilocalorie basis, were further separated into six groups, eight animals per group. Average body weight of these diet-induced obese mice was 38 g at the start of the study. For the lean group, fifteen week-old C57BLI6NTac mice, maintained on a diet containing 4.3% by weight fat prior to and during the study, were further separated into two groups, eight animals per group. Average body weight of these lean mice was 28 g at the start of the study.
(§2) Fumagillin was administered to three of the diet-induced obese mice groups by oral gavage as a solution in 10% DMSO, at doses of 0.1 mg/kg/day, 0.3 mg/kg/day, and 1 mg/kg/day respectively. A fourth diet-induced obese mice group received the 10% DMSO vehicle only by oral gavage. A group of lean mice was administered fumagillin by oral gavage as a solution in 10% DMSO at a dose of 1 mg/kg/day. Treatments were administered daily for 11 days.
as §1, with “A study was undertaken to analyze whether oral administration compared to subcutaneous administration of fumagillin affected weight loss in diet-induced obese mice. Mice” for “Mice”
Fumagillin was administered to three of the diet-induced obese groups by oral gavage as a solution in 10% DMSO, at doses of 0.1 mg/kg/day, 0.3 mg/kg/day, and 1 mg/kg/day respectively. A fourth diet-induced obese group received the 10% DMSO vehicle-only by oral gavage. A fifth diet-induced obese group received fumagillin at a 1 mg/kg/day dose by subcutaneous injection of a solution in 10% DMSO. A sixth diet-induced obese group received the 10% DMSO vehicle only by subcutaneous injection. A group of lean mice was administered fumagillin by oral gavage as a solution in 10% DMSO at a dose of 1 mg/kg/day.
Another group of lean mice was administered fumagillin by subcutaneous injection of a solution in 10% DMSO at a dose of 1 mg/kg/day. Treatments were administered daily for 14 days.

lean mice = assay: Oral and subcutaneous fumagillin in lean mice (Examples 3 and 4); assay type: in vivo, C57BLI6NTac mice
Excerpt: as §1, §2
A study was undertaken to analyze whether oral administration compared to subcutaneous administration of fumagillin affected weight loss in diet-induced obese mice. Mice were divided into two groups, a diet-induced obese group and a lean group. […]

diet-induced obese mice [3] = assay: Percent fat change and lean mass change by NMR in diet-induced obese mice, 28 days (Example 6); assay type: in vivo, C57BL6J mice
Description: Mice were first divided into three groups, a control group, a diet-induced obese group, and a lean group. For the diet-induced obese group, C57BL6J mice maintained prior to and during the study on a diet containing 40% fat on a kilocalorie basis were further divided into two groups. For the lean group, C57BL6J mice were maintained on a diet containing 4% by weight fat prior to and during the study. Each of the groups was subsequently divided as described below.
The lean group was administered 1% DMSO vehicle for 28 days. Percent fat change and percent lean mass change from baseline were determined by NMR after 28 days.

[4] = mouse, 33 mg/kg/day; Ingbar et al.; cited from earlier work
[5] = oral gavage, weight loss, not identified, concluded

T1 sequence (O08663 whole entry): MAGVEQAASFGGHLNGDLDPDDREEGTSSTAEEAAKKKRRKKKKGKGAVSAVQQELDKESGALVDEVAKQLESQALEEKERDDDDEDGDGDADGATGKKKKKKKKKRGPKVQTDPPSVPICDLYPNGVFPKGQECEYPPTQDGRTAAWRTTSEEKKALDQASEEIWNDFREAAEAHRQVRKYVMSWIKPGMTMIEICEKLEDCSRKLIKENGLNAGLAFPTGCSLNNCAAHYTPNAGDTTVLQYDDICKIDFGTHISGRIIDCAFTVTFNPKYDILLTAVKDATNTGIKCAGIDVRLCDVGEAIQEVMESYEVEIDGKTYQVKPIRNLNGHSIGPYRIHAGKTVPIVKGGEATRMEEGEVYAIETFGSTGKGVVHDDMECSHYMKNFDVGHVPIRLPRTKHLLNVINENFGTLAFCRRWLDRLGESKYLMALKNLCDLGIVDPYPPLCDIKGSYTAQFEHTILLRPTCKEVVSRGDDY

CO[C@@H]1[C@H](OC(=O)/C=C/C=C/C=C/C=C/C(=O)O)CC[C@]2(CO2)[C@H]1[C@@]1(C)O[C@@H]1CC=C(C)C [fumagillin]
binding to MetAP-2 in adipose tissue (MetAP-2): binds MetAP-2 in adipose tissue
neutrophil counts compared to vehicle-only mice (diet-induced obese mice [1]; 1 mg/kg and 3 mg/kg oral): decreased
weight loss as a percentage of pre-study weight (diet-induced obese mice [1]; 1 mg/kg/day oral gavage): 15%
weight loss as a percentage of pre-study weight (diet-induced obese mice [1]; 3 mg/kg/day oral gavage): 18%
neutrophil counts compared to vehicle-only mice (diet-induced obese mice [1]; 10 mg/kg and 30 mg/kg oral): increased
weight loss as a percentage of pre-study weight (diet-induced obese mice [1]; 10 mg/kg/day oral gavage): 21%
weight loss as a percentage of pre-study weight (diet-induced obese mice [1]; 30 mg/kg/day oral gavage): 33%
food consumption among dose groups (diet-induced obese mice [1]; 30 mg/kg/day oral, 30 day period): consuming the least amount of food
food consumption vs vehicle-only and naive mice (diet-induced obese mice [1]; 1-30 mg/kg/day oral, 30 day period): consumed less food
leukocytes, particularly lymphocytes (hematology) (diet-induced obese mice [1]; fumagillin dose groups, oral): decrease
platelets (diet-induced obese mice [1]; fumagillin dose groups, oral): No decrease
cholesterol levels (diet-induced obese mice [1]; fumagillin treatment, oral): reductions
serum glucose levels (diet-induced obese mice [1]; fumagillin treatment, oral): reductions
non-effective dose (diet-induced obese mice [1]; [5]): below 1 mg/kg/day
weight loss as a percentage of pre-study weight (diet-induced obese mice [2]; 0.1 mg/kg/day oral gavage, end of study (14 days)): 7%
weight loss as a percentage of pre-study weight (diet-induced obese mice [2]; 0.3 mg/kg/day oral gavage, end of study (14 days)): 11%
weight loss as a percentage of pre-study weight (diet-induced obese mice [2]; 1 mg/kg/day oral gavage, end of study (14 days)): 12%
weight loss as a percentage of pre-study weight (diet-induced obese mice [2]; 1 mg/kg/day subcutaneous injection, 14 days, end of study): 7%
non-effective dose (diet-induced obese mice [2]; [5]): below 0.1 mg/kg/day
weight change (lean mice; 1 mg/kg/day oral gavage): no weight change
weight loss (lean mice; 1 mg/kg/day subcutaneous): no weight loss
weight loss (diet-induced obese mice [3]; 0.3 mg/kg/day oral gavage): lost significant amounts of weight
weight loss (diet-induced obese mice [3]; 1.0 mg/kg/day oral gavage): losing a greater amount of weight
loss of lean body mass (NMR) (diet-induced obese mice [3]; 0.3 or 1.0 mg/kg/day oral gavage): without resulting in substantial loss of lean body mass
side-effect of administration (wasting) [4]: severe weight loss
